# Experimental data taken from ChEMBL document CHEMBL1201862, “PubChem BioAssay data set” (2004).
#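 Results reflect a 48-hour exposure of cells in 96-well plates to compound at five concentrations. GI50 = concentration required for 50% inhibition of growth.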 The source made the active and inactive calls. Cut-off read from the data, not from the text of the source: active = GI50 up to about 1.1 µM and inactive = higher.
# Assays:
# Assay in all cases: NCI tumour cell line growth inhibition, 48 h
# [1] = test system: 786-0
# [2] = test system: A498
# [3] = test system: A549
# [4] = test system: ACHN
# [5] = test system: BT-549
# [6] = test system: CAKI-1
# [7] = test system: CCRF-CEM
# [8] = test system: COLO 205
# [9] = test system: DU-145
# [10] = test system: EKVX
# [11] = test system: HCC 2998
# [12] = test system: HCT-116
# [13] = test system: HCT-15
# [14] = test system: HL-60
# [15] = test system: HOP-62
# [16] = test system: HOP-92
# [17] = test system: HT-29
# [18] = test system: Hs-578T
# [19] = test system: IGROV-1
# [20] = test system: K562
# [21] = test system: KM12
# [22] = test system: LOX IMVI
# [23] = test system: M14
# [24] = test system: MCF7
# [25] = test system: MDA-MB-231
# [26] = test system: MDA-MB-435
# [27] = test system: MDA-N
# [28] = test system: MOLT-4
# [29] = test system: Malme-3M
# [30] = test system: NCI-H226
# [31] = test system: NCI-H23
# [32] = test system: NCI-H460
# [33] = test system: NCI-H522
# [34] = test system: NCI/ADR-RES
# [35] = test system: OVCAR-3
# [36] = test system: OVCAR-4
# [37] = test system: OVCAR-5
# [38] = test system: OVCAR-8
# [39] = test system: PC-3
# [40] = test system: RPMI-8226
# [41] = test system: RXF 393
# [42] = test system: SF-268
# [43] = test system: SF-295
# [44] = test system: SK-MEL-28
# [45] = test system: SK-MEL-2
# [46] = test system: SK-MEL-5
# [47] = test system: SK-OV-3
# [48] = test system: SN12C
# [49] = test system: SNB-19
# [50] = test system: SNB-75
# [51] = test system: SW-620
# [52] = test system: T47D
# [53] = test system: TK-10
# [54] = test system: U-251
# [55] = test system: UACC-257
# [56] = test system: UACC-62
# [57] = test system: UO-31
smiles,measurement,setting,value
CC(C)[C@H](NC(=O)[C@H](N)Cc1ccc(N(CCCl)CCCl)cc1)C(=O)O,GI50,[1],> 100 µM (inactive)
same,GI50,[2],> 100 µM (inactive)
same,GI50,[3],> 100 µM (inactive)
same,GI50,[4],> 100 µM (inactive)
same,GI50,[5],> 100 µM (inactive)
same,GI50,[6],> 100 µM (inactive)
same,GI50,[7],78.7 µM (inactive)
same,GI50,[8],> 100 µM (inactive)
same,GI50,[9],> 100 µM (inactive)
same,GI50,[10],> 100 µM (inactive)
same,GI50,[11],> 100 µM (inactive)
same,GI50,[12],> 100 µM (inactive)
same,GI50,[13],> 100 µM
same,GI50,[14],> 100 µM (inactive)
same,GI50,[15],> 100 µM (inactive)
same,GI50,[16],9.82 µM (inactive)
same,GI50,[17],> 100 µM (inactive)
same,GI50,[18],> 100 µM (inactive)
same,GI50,[19],> 100 µM (inactive)
same,GI50,[20],> 100 µM (inactive)
same,GI50,[21],> 100 µM (inactive)
same,GI50,[22],> 100 µM (inactive)
same,GI50,[23],> 100 µM (inactive)
same,GI50,[24],> 100 µM (inactive)
same,GI50,[25],> 100 µM (inactive)
same,GI50,[26],> 100 µM (inactive)
same,GI50,[27],> 100 µM (inactive)
same,GI50,[28],29.3 µM (inactive)
same,GI50,[29],> 100 µM (inactive)
same,GI50,[30],> 100 µM (inactive)
same,GI50,[31],> 100 µM (inactive)
same,GI50,[32],> 100 µM (inactive)
same,GI50,[33],> 100 µM (inactive)
same,GI50,[34],> 100 µM (inactive)
same,GI50,[35],> 100 µM (inactive)
same,GI50,[36],> 100 µM (inactive)
same,GI50,[37],> 100 µM (inactive)
same,GI50,[38],> 100 µM (inactive)
same,GI50,[39],> 100 µM (inactive)
same,GI50,[40],> 100 µM (inactive)
same,GI50,[41],> 100 µM (inactive)
same,GI50,[42],> 100 µM (inactive)
same,GI50,[43],> 100 µM (inactive)
same,GI50,[44],> 100 µM (inactive)
same,GI50,[45],> 100 µM (inactive)
same,GI50,[46],> 100 µM (inactive)
same,GI50,[47],> 100 µM (inactive)
same,GI50,[48],> 100 µM (inactive)
same,GI50,[49],> 100 µM (inactive)
same,GI50,[50],> 100 µM (inactive)
same,GI50,[51],> 100 µM (inactive)
same,GI50,[52],> 100 µM (inactive)
same,GI50,[53],> 100 µM (inactive)
same,GI50,[54],> 100 µM (inactive)
same,GI50,[55],> 100 µM (inactive)
same,GI50,[56],> 100 µM (inactive)
same,GI50,[57],> 100 µM (inactive)
